# Laboratory results from the supplement of paper PMC10307832.
# How the values were obtained:
# Experiment in all cases: relative viability (nuclei count vs DMSO), 5 days (fraction); higher = more cells survive
# [1] = compound: CN1CCN(CC1)C2=CC(=C(C=C2)NC3=NC(=C(S3)C(=O)C4=C(C=CC=C4Cl)Cl)N)OC [XMD14-99] + Cc1nc(NC(=O)N2CCC[C@H]2C(N)=O)sc1-c1ccnc(C(C)(C)C(F)(F)F)c1 [Alpelisib] (partner 2 µM)
# Summary of the method: (§1)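 Nuclei were stained with Hoechst during a one-step fixation (final 0.05% Triton X-100, 1% formaldehyde, 1 ug/ml Hoechst) carried out 5 days after dosing, then counted on 4× images. The cells, lung cancer lines in 1536-well plates, had been dosed by pin tool the day after seeding with one drug alone or a fixed anchor-drug dose plus five library-drug doses (not always all listed) in √10 steps. Relative viability is the nuclei count in treated wells divided by that in vehicle wells, and each value is the median of duplicate plates.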
# [2] = compound: N[C@@H]1CCCN(c2c(/C=C3\SC(=O)NC3=O)cccc2-c2ccccc2)C1 [AZD1208] + Cc1nc(Nc2ncc(C(=O)Nc3c(C)cccc3Cl)s2)cc(N2CCN(CCO)CC2)n1 [Dasatinib] (partner 0.075 µM)
# Summary of the method: as §1
# [3] = compound: CN1CCN(CC1)C2=CC(=C(C=C2)NC3=NC(=C(S3)C(=O)C4=C(C=CC=C4Cl)Cl)N)OC [XMD14-99] + O=C(c1cc(Cc2n[nH]c(=O)c3ccccc23)ccc1F)N1CCN(C(=O)C2CC2)CC1 [Olaparib] (partner 8 µM)
# Summary of the method: as §1
# [4] = compound: CN1CCN(CC1)C2=CC(=C(C=C2)NC3=NC(=C(S3)C(=O)C4=C(C=CC=C4Cl)Cl)N)OC [XMD14-99] + Nc1nc2[nH]cc(CCc3ccc(C(=O)N[C@@H](CCC(=O)O)C(=O)O)cc3)c2c(=O)[nH]1 [Pemetrexed] (partner 0.2 µM)
# Summary of the method: as §1
cell line,measurement,setting,value
UMC-11,relative viability,[1]; first compound 0.08 µM,0.939
same,relative viability,[1]; first compound 0.8 µM,1.02
same,relative viability,[1]; first compound 2.53 µM,1.01
same,relative viability,[1]; first compound 8 µM,0.735
same,relative viability,[2]; first compound 0.08 µM,0.462
same,relative viability,[2]; first compound 0.253 µM,0.469
same,relative viability,[2]; first compound 0.8 µM,0.446
same,relative viability,[2]; first compound 2.53 µM,0.483
same,relative viability,[2]; first compound 8 µM,0.41
same,relative viability,[3]; first compound 0.08 µM,0.363
same,relative viability,[3]; first compound 0.8 µM,0.313
same,relative viability,[3]; first compound 2.53 µM,0.345
same,relative viability,[3]; first compound 8 µM,0.288
same,relative viability,[4]; first compound 0.08 µM,0.752
same,relative viability,[4]; first compound 0.8 µM,0.769
same,relative viability,[4]; first compound 2.53 µM,0.688
same,relative viability,[4]; first compound 8 µM,0.69
